From ChEMBL document CHEMBL1201862, “PubChem BioAssay data set” (2004)
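Tested at 5 concentrations; 48 h exposure; 96-well plates; endpoints linearly interpolated, else capped at highest concentration. GI50 is the concentration that inhibits growth by half.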 Activity calls are given as the source filed them. No stated cut-off is given here; in the data, active = GI50 up to about 1.1 µM and inactive = higher.

How the values were obtained:
Experiment in all cases: NCI anticancer screen, dose series, 48 h
EKVX = test system: EKVX
HCC 2998 = test system: HCC 2998
SNB-19 = test system: SNB-19
SK-MEL-2 = test system: SK-MEL-2
NCI-H460 = test system: NCI-H460
HOP-62 = test system: HOP-62
KM12 = test system: KM12
IGROV-1 = test system: IGROV-1
HOP-92 = test system: HOP-92
TK-10 = test system: TK-10
HL-60 = test system: HL-60
OVCAR-8 = test system: OVCAR-8
OVCAR-3 = test system: OVCAR-3
HT-29 = test system: HT-29
U-251 = test system: U-251
HCT-116 = test system: HCT-116
MDA-MB-435 = test system: MDA-MB-435
NCI/ADR-RES = test system: NCI/ADR-RES
MDA-MB-231 = test system: MDA-MB-231

Measured: GI50

CC(C)N1CCOC(c2ccc(O)c(O)c2)C1 (stereo unspecified)
inactive: EKVX > 100 µM | HCC 2998 > 100 µM | SNB-19 > 100 µM | SK-MEL-2 > 100 µM | NCI-H460 > 100 µM | HOP-62 > 100 µM | KM12 > 100 µM | IGROV-1 > 100 µM | HOP-92 > 100 µM | TK-10 > 100 µM | HL-60 > 100 µM | OVCAR-8 > 100 µM | OVCAR-3 > 100 µM | HT-29 > 100 µM

CC(C)(C)[C@H]1CO[C@]2(c3ccccc3)[C@@H]3C[C@@H]3C(=O)N12
inactive: EKVX > 100 µM | HCC 2998 > 100 µM | SNB-19 > 100 µM | SK-MEL-2 > 100 µM | NCI-H460 > 100 µM | HOP-62 > 100 µM | U-251 > 100 µM | KM12 > 100 µM | IGROV-1 > 100 µM | HOP-92 > 100 µM | TK-10 > 100 µM | HL-60 > 100 µM | OVCAR-8 > 100 µM | OVCAR-3 > 100 µM | HT-29 > 100 µM

Cc1ccc(NC(=O)C(=O)C2C(=O)NC(=O)NC2=O)c(C)c1
inactive: EKVX > 100 µM | HCC 2998 > 100 µM | SNB-19 > 100 µM | SK-MEL-2 > 100 µM | NCI-H460 > 100 µM | HOP-62 > 100 µM | U-251 > 100 µM | KM12 > 100 µM | IGROV-1 > 100 µM | HOP-92 > 100 µM | TK-10 > 100 µM | HL-60 > 100 µM | HCT-116 > 100 µM | OVCAR-8 > 100 µM | OVCAR-3 > 100 µM | HT-29 > 100 µM

C[N+](C)(C)CC(=O)N/N=C(\C(=O)Nc1ccc(Cl)cc1)C1C(=O)N(c2ccccc2)N=C1N (stereo unspecified)
inactive: EKVX > 100 µM | HCC 2998 > 100 µM | SNB-19 > 100 µM | SK-MEL-2 > 100 µM | NCI-H460 > 100 µM | HOP-62 > 100 µM | U-251 > 100 µM | KM12 > 100 µM | IGROV-1 > 100 µM | HOP-92 > 100 µM | TK-10 > 100 µM | HL-60 > 100 µM | HCT-116 > 100 µM | OVCAR-8 > 100 µM | OVCAR-3 > 100 µM | HT-29 > 100 µM

CC(=O)OC1=C(CC(C)(C)C)C(=O)c2ccccc2C1=O
inactive: EKVX 37 µM | MDA-MB-435 21.7 µM | HCC 2998 40.2 µM | SNB-19 42.6 µM | SK-MEL-2 31.8 µM | NCI-H460 25 µM | HOP-62 35.2 µM | U-251 44.8 µM | KM12 32.2 µM | IGROV-1 34.2 µM | NCI/ADR-RES 18.1 µM | TK-10 68.9 µM | HL-60 16 µM | HCT-116 25.8 µM | MDA-MB-231 87.7 µM | OVCAR-8 27.2 µM | HT-29 33.7 µM

[O-][n+]1c2ccccc2[n+]([O-])c2ccccc21
inactive: EKVX > 100 µM | MDA-MB-435 > 100 µM | SNB-19 86.3 µM | SK-MEL-2 > 100 µM | NCI-H460 30.1 µM | HOP-62 > 100 µM | U-251 > 100 µM | IGROV-1 46.5 µM | NCI/ADR-RES > 100 µM | TK-10 > 100 µM | HL-60 11.5 µM | HCT-116 > 100 µM | MDA-MB-231 44.5 µM | OVCAR-8 86.3 µM | HT-29 86.3 µM

Cc1nc(N)sc1C(=O)/C=C/c1ccc([N+](=O)[O-])cc1
inactive: EKVX > 100 µM | HCC 2998 > 100 µM | SNB-19 > 100 µM | SK-MEL-2 > 100 µM | NCI-H460 > 100 µM | HOP-62 > 100 µM | U-251 > 100 µM | KM12 > 100 µM | IGROV-1 > 100 µM | HOP-92 > 100 µM | TK-10 > 100 µM | HL-60 > 100 µM | OVCAR-8 > 100 µM | OVCAR-3 > 100 µM | HT-29 > 100 µM

Nc1ccc2ncc(NCc3ccc(F)cc3)nc2c1
inactive: EKVX 62.7 µM | HCC 2998 > 100 µM | SNB-19 > 100 µM | SK-MEL-2 > 100 µM | NCI-H460 74.6 µM | HOP-62 40.6 µM | U-251 > 100 µM | KM12 > 100 µM | HOP-92 53.1 µM | TK-10 97.3 µM | HL-60 95.9 µM | HCT-116 > 100 µM | OVCAR-8 90.4 µM | OVCAR-3 38.9 µM | HT-29 > 100 µM

CN(C)/C=C/C(=CC=[N+](C)C)/C=C/N(C)C.[O-][Cl+3]([O-])([O-])[O-]
inactive: HCC 2998 > 100 µM | SNB-19 > 100 µM | SK-MEL-2 > 100 µM | NCI-H460 > 100 µM | HOP-62 > 100 µM | U-251 > 100 µM | KM12 > 100 µM | IGROV-1 > 100 µM | HOP-92 > 100 µM | TK-10 > 100 µM | HL-60 > 100 µM | HCT-116 > 100 µM | OVCAR-8 > 100 µM | OVCAR-3 > 100 µM | HT-29 > 100 µM

CCOC(=O)C1(C(=O)OCC)C(C(C)(C)C)=C(C)c2ccccc21
inactive: EKVX 20.1 µM | HCC 2998 16 µM | SNB-19 19.9 µM | SK-MEL-2 18.5 µM | NCI-H460 11.9 µM | HOP-62 20.3 µM | U-251 15.3 µM | KM12 12.6 µM | IGROV-1 14.5 µM | HOP-92 3.4 µM | TK-10 30.1 µM | HL-60 9.93 µM | HCT-116 6.75 µM | OVCAR-8 20.6 µM | OVCAR-3 11.9 µM | HT-29 10.9 µM

C=C1CC(CC(=O)C(C)CC2CC(=C)C(=O)O2)OC1=O (stereo unspecified)
inactive: EKVX 52.2 µM | HCC 2998 37.1 µM | SNB-19 > 100 µM | SK-MEL-2 9.35 µM | NCI-H460 32.1 µM | HOP-62 > 100 µM | U-251 71.4 µM | KM12 10.5 µM | IGROV-1 32.8 µM | HOP-92 17.7 µM | TK-10 19.1 µM | HL-60 14 µM | HCT-116 12.1 µM | OVCAR-8 28 µM | OVCAR-3 17.7 µM | HT-29 26.2 µM

CCOC(=O)c1c2ccc(/C=C/C(=O)OC)ccc-2c(C(=O)OCC)c1N
inactive: EKVX > 100 µM | HCC 2998 > 100 µM | SNB-19 > 100 µM | SK-MEL-2 > 100 µM | NCI-H460 > 100 µM | KM12 > 100 µM | IGROV-1 > 100 µM | HOP-92 > 100 µM | TK-10 > 100 µM | HL-60 > 100 µM | OVCAR-3 > 100 µM | HT-29 > 100 µM

O=C1C[C@H]2CCCN2[C@@H](c2ccccc2)C1
inactive: EKVX > 100 µM | HCC 2998 > 100 µM | SNB-19 > 100 µM | SK-MEL-2 > 100 µM | NCI-H460 > 100 µM | HOP-62 > 100 µM | U-251 > 100 µM | KM12 > 100 µM | IGROV-1 > 100 µM | HOP-92 > 100 µM | TK-10 > 100 µM | HL-60 > 100 µM | HCT-116 > 100 µM | OVCAR-8 > 100 µM | OVCAR-3 > 100 µM | HT-29 > 100 µM

O=C(Nc1cc(Cl)cc(Cl)c1)/C(Cc1nc2ccccc2nc1O)=N/NC(=O)c1ccncc1
inactive: EKVX > 100 µM | HCC 2998 > 100 µM | SNB-19 > 100 µM | SK-MEL-2 > 100 µM | NCI-H460 > 100 µM | HOP-62 > 100 µM | U-251 > 100 µM | KM12 > 100 µM | IGROV-1 > 100 µM | HOP-92 14.4 µM | TK-10 > 100 µM | HL-60 > 100 µM | HCT-116 > 100 µM | OVCAR-8 > 100 µM | OVCAR-3 > 100 µM

O=C(/C=C/c1ccc(Cl)cc1)c1ccc(Cl)c(Cl)c1
inactive: EKVX 26.4 µM | HCC 2998 30.3 µM | SNB-19 23.7 µM | SK-MEL-2 23.4 µM | NCI-H460 34.6 µM | HOP-62 22 µM | U-251 11.2 µM | KM12 9.31 µM | IGROV-1 22.3 µM | HOP-92 > 10 µM | TK-10 > 10 µM | HL-60 3.44 µM | HCT-116 4.99 µM | OVCAR-8 20.6 µM | OVCAR-3 21.7 µM | HT-29 48 µM

CCCCCCCC(=O)OCC1OC(n2cc(F)c(=O)[nH]c2=O)C(NC(=O)OCc2ccccc2)C(O)C1O (stereo unspecified)
inactive: EKVX > 100 µM | HCC 2998 19.5 µM | SNB-19 53.3 µM | SK-MEL-2 20.4 µM | NCI-H460 > 100 µM | HOP-62 > 100 µM | U-251 80.2 µM | KM12 32.4 µM | IGROV-1 > 100 µM | HOP-92 23.8 µM | TK-10 > 100 µM | HL-60 40.3 µM | HCT-116 > 100 µM | OVCAR-8 > 100 µM | OVCAR-3 > 100 µM | HT-29 > 100 µM

COc1cc2c(cn1)[nH]c1ccccc12
inactive: EKVX > 100 µM | HCC 2998 > 100 µM | SNB-19 > 100 µM | SK-MEL-2 > 100 µM | NCI-H460 > 100 µM | HOP-62 > 100 µM | U-251 > 100 µM | KM12 > 100 µM | IGROV-1 > 100 µM | HOP-92 > 100 µM | TK-10 > 100 µM | HL-60 > 100 µM | HCT-116 > 100 µM | OVCAR-8 > 100 µM | OVCAR-3 > 100 µM | HT-29 > 100 µM
